{
  "source": "paper PMC6364417",
  "about": "“Kinase inhibitor library screening identifies synergistic drug combinations effective in sensitive and resistant melanoma cells” (Journal of Experimental & Clinical Cancer Research : CR, 2019)",
  "assay_in_all_cases": "Kinase inhibitor library screening, PrestoBlue cell viability, 1 or 10 μM, 72 h",
  "key": {"501Mel cells (parental)": {"test_system": "501Mel cells (parental)", "details": "501Mel Parental, in %; for Cell viability in kinase inhibitor library screening, 501Mel Parental, 1μΜ / Cell viability in kinase inhibitor library screening, 501Mel Parental, 10μΜ: 72 h", "method": "(§1) After 72 h of treatment, cell viability was assessed using the PrestoBlue Cell Viability Reagent (ThermoFisher Scientific). Measurements were performed with the CLARIOstar Monochromator microplate reader (BMG Labtech).\n(§2) Kinase inhibitor library screening. […] Each cell line was treated in its sensitive form (parental), and also as 2 resistant derivatives, which were made resistant to either Vemurafenib (XP) or Dabrafenib (GP). Drugs were added at 2 different concentrations, 1 and 10 μM, for 72 h and cell viability was assessed using the PrestoBlue Cell Viability assay. Results are depicted as % viability compared to untreated cells. Each cell line was analyzed at least in duplicate. […] (XLSX 95 kb)"}, "[1]": {"test_system": "IGR37-GP cells (Dabrafenib-resistant)", "details": "IGR37 GP", "method": "as §1, §2"}, "[2]": {"test_system": "A375-XP cells (Vemurafenib-resistant)", "details": "A375 XP", "method": "as §1, §2"}, "[3]": {"test_system": "IGR37-XP cells (Vemurafenib-resistant)", "details": "IGR37 XP", "method": "as §1, §2"}, "[4]": {"test_system": "501Mel-XP cells (Vemurafenib-resistant)", "details": "501Mel XP, in %", "method": "as §1, §2"}, "A375 cells (parental)": {"test_system": "A375 cells (parental)", "details": "A375 Parental", "method": "as §1, §2"}, "[5]": {"test_system": "A375-GP cells (Dabrafenib-resistant)", "details": "A375 GP", "method": "as §1, §2"}, "[6]": {"test_system": "501Mel-GP cells (Dabrafenib-resistant)", "details": "501Mel GP, in %", "method": "as §1, §2"}, "IGR37 cells (parental)": {"test_system": "IGR37 cells (parental)", "details": "IGR37 Parental, 72 h, in %", "method": "as §1, §2"}},
  "data": [
    {"compound": "Cc1[nH]c(/C=C2\\C(=O)Nc3ccccc32)c(C)c1CCC(=O)O", "note": "[TSU-68]", "values": [
      {"measurement": "cell viability (kinase inhibitor library screening)", "setting": "501Mel cells (parental); 1μΜ", "result": 103.3},
      {"measurement": "cell viability (kinase inhibitor library screening)", "setting": "[1]; 1μΜ, in %", "result": 97.4},
      {"measurement": "cell viability (kinase inhibitor library screening)", "setting": "[2]; 1μΜ, in %", "result": 108.6},
      {"measurement": "cell viability (kinase inhibitor library screening)", "setting": "[2]; 10μΜ, in %", "result": 103.8},
      {"measurement": "cell viability (kinase inhibitor library screening)", "setting": "[3]; 1μΜ, in %", "result": 95.2},
      {"measurement": "cell viability (kinase inhibitor library screening)", "setting": "[3]; 10μΜ, in %", "result": 76.8},
      {"measurement": "cell viability (kinase inhibitor library screening)", "setting": "[4]; 1μΜ", "result": 99.9},
      {"measurement": "cell viability (kinase inhibitor library screening)", "setting": "[4]; 10μΜ", "result": 80.9},
      {"measurement": "cell viability (kinase inhibitor library screening)", "setting": "A375 cells (parental); 1μΜ, in %", "result": 114.1},
      {"measurement": "cell viability (kinase inhibitor library screening)", "setting": "A375 cells (parental); 10μΜ, in %", "result": 107.4},
      {"measurement": "cell viability (kinase inhibitor library screening)", "setting": "[5]; 1μΜ, in %", "result": 113.8},
      {"measurement": "cell viability (kinase inhibitor library screening)", "setting": "[5]; 10μΜ, in %", "result": 94.6},
      {"measurement": "cell viability (kinase inhibitor library screening)", "setting": "[6]; 1μΜ", "result": 108.8},
      {"measurement": "cell viability (kinase inhibitor library screening)", "setting": "[6]; 10μΜ", "result": 99.1}
    ]},
    {"compound": "Cc1nc(NC(=O)N2CCC[C@H]2C(N)=O)sc1-c1csc(C(C)(C)C)n1", "note": "[A66]", "values": [
      {"measurement": "Cell viability in kinase inhibitor library screening, 501Mel Parental, 1μΜ", "setting": "501Mel cells (parental); 1μΜ", "result": 94.4},
      {"measurement": "Cell viability in kinase inhibitor library screening, 501Mel Parental, 10μΜ", "setting": "501Mel cells (parental)", "result": 85.2},
      {"measurement": "Cell viability in kinase inhibitor library screening, IGR37 GP, 10μΜ", "setting": "[1]; 10μΜ, 72 h", "result": 75, "unit": "%"},
      {"measurement": "Cell viability in kinase inhibitor library screening, IGR37 GP, 1μΜ", "setting": "[1]; 1μΜ, 72 h, in %", "result": 91.2},
      {"measurement": "Cell viability in kinase inhibitor library screening, A375 XP, 1μΜ", "setting": "[2]; 1μΜ, 72 h", "result": 92.2},
      {"measurement": "Cell viability in kinase inhibitor library screening, A375 XP, 10μΜ", "setting": "[2]; 10μΜ, 72 h", "result": 75.9},
      {"measurement": "Cell viability in kinase inhibitor library screening, IGR37 XP, 10μΜ", "setting": "[3]; 10μΜ, 72 h", "result": 41.5, "unit": "%"},
      {"measurement": "Cell viability in kinase inhibitor library screening, IGR37 XP, 1μΜ", "setting": "[3]; 1μΜ, 72 h, in %", "result": 91.5},
      {"measurement": "Cell viability in kinase inhibitor library screening, 501Mel XP, 1μΜ", "setting": "[4]; 1μΜ, 72 h", "result": 102.8},
      {"measurement": "Cell viability in kinase inhibitor library screening, 501Mel XP, 10μΜ", "setting": "[4]; 10μΜ, 72 h", "result": 65.7},
      {"measurement": "Cell viability in kinase inhibitor library screening, A375 Parental, 10μΜ", "setting": "A375 cells (parental); 10μΜ, 72 h", "result": 72.4},
      {"measurement": "Cell viability in kinase inhibitor library screening, A375 Parental, 1μΜ", "setting": "A375 cells (parental); 1μΜ, 72 h", "result": 98.3},
      {"measurement": "Cell viability in kinase inhibitor library screening, A375 GP, 1μΜ", "setting": "[5]; 1μΜ, 72 h", "result": 93.1},
      {"measurement": "Cell viability in kinase inhibitor library screening, A375 GP, 10μΜ", "setting": "[5]; 10μΜ, 72 h", "result": 64.2},
      {"measurement": "Cell viability in kinase inhibitor library screening, 501Mel GP, 1μΜ", "setting": "[6]; 1μΜ, 72 h", "result": 92.2},
      {"measurement": "Cell viability in kinase inhibitor library screening, 501Mel GP, 10μΜ", "setting": "[6]; 10μΜ, 72 h", "result": 75.2}
    ]},
    {"compound": "C[C@@H]1CCN(C(=O)CC#N)C[C@@H]1N(C)c1ncnc2[nH]ccc12", "note": "[Tofacitinib (CP-690550, Tasocitinib)]", "values": [
      {"measurement": "cell viability, IGR37 GP, 10μΜ", "setting": "[1]; 10μΜ, 72 h", "result": 95.3, "unit": "%"},
      {"measurement": "cell viability, IGR37 GP, 1μΜ", "setting": "[1]; 1μΜ, 72 h, in %", "result": 97.9},
      {"measurement": "cell viability, IGR37 Parental, 1μΜ", "setting": "IGR37 cells (parental); 1μΜ", "result": 108.6},
      {"measurement": "cell viability, IGR37 Parental, 10μΜ", "setting": "IGR37 cells (parental); 10μΜ", "result": 104.5},
      {"measurement": "cell viability, A375 XP, 1μΜ", "setting": "[2]; 1μΜ, 72 h, in %", "result": 103.8},
      {"measurement": "cell viability, A375 XP, 10μΜ", "setting": "[2]; 10μΜ, 72 h, in %", "result": 103.6},
      {"measurement": "cell viability, IGR37 XP, 10μΜ", "setting": "[3]; 10μΜ, 72 h", "result": 71.2, "unit": "%"},
      {"measurement": "cell viability, IGR37 XP, 1μΜ", "setting": "[3]; 1μΜ, 72 h, in %", "result": 96.7},
      {"measurement": "cell viability, 501Mel XP, 1μΜ", "setting": "[4]; 1μΜ, 72 h", "result": 94.3},
      {"measurement": "cell viability, 501Mel XP, 10μΜ", "setting": "[4]; 10μΜ, 72 h", "result": 92.6},
      {"measurement": "cell viability, A375 Parental, 1μΜ", "setting": "A375 cells (parental); 1μΜ, 72 h, in %", "result": 104.5},
      {"measurement": "cell viability, A375 Parental, 10μΜ", "setting": "A375 cells (parental); 10μΜ, 72 h, in %", "result": 97.3},
      {"measurement": "cell viability, A375 GP, 1μΜ", "setting": "[5]; 1μΜ, 72 h, in %", "result": 103.9},
      {"measurement": "cell viability, A375 GP, 10μΜ", "setting": "[5]; 10μΜ, 72 h, in %", "result": 97.7},
      {"measurement": "cell viability, 501Mel GP, 1μΜ", "setting": "[6]; 1μΜ, 72 h", "result": 104.8},
      {"measurement": "cell viability, 501Mel GP, 10μΜ", "setting": "[6]; 10μΜ, 72 h", "result": 94.8}
    ]},
    {"compound": "O=c1c(O)c(-c2ccc(O)c(O)c2)oc2cc(O)cc(O)c12", "note": "[Quercetin (Sophoretin)]", "values": [
      {"measurement": "Cell viability in kinase inhibitor library screening, 501Mel Parental, 1μΜ", "setting": "501Mel cells (parental); 1μΜ", "result": 99.7},
      {"measurement": "Cell viability in kinase inhibitor library screening, 501Mel Parental, 10μΜ", "setting": "501Mel cells (parental)", "result": 94.0},
      {"measurement": "Cell viability in kinase inhibitor library screening, IGR37 GP, 10μΜ", "setting": "[1]; 10μΜ, 72 h", "result": 78.8, "unit": "%"},
      {"measurement": "Cell viability in kinase inhibitor library screening, A375 XP, 10μΜ", "setting": "[2]; 10μΜ, 72 h", "result": 96.9},
      {"measurement": "Cell viability in kinase inhibitor library screening, IGR37 XP, 10μΜ", "setting": "[3]; 10μΜ, 72 h", "result": 58.7, "unit": "%"},
      {"measurement": "Cell viability in kinase inhibitor library screening, IGR37 XP, 1μΜ", "setting": "[3]; 1μΜ, 72 h, in %", "result": 99.1},
      {"measurement": "Cell viability in kinase inhibitor library screening, 501Mel XP, 1μΜ", "setting": "[4]; 1μΜ, 72 h", "result": 90.4},
      {"measurement": "Cell viability in kinase inhibitor library screening, 501Mel XP, 10μΜ", "setting": "[4]; 10μΜ, 72 h", "result": 65.0},
      {"measurement": "Cell viability in kinase inhibitor library screening, A375 Parental, 10μΜ", "setting": "A375 cells (parental); 10μΜ, 72 h", "result": 94.2},
      {"measurement": "Cell viability in kinase inhibitor library screening, A375 Parental, 1μΜ", "setting": "A375 cells (parental); 1μΜ, 72 h", "result": 97.7},
      {"measurement": "Cell viability in kinase inhibitor library screening, A375 GP, 10μΜ", "setting": "[5]; 10μΜ, 72 h", "result": 87.9},
      {"measurement": "Cell viability in kinase inhibitor library screening, 501Mel GP, 1μΜ", "setting": "[6]; 1μΜ, 72 h", "result": 98.5},
      {"measurement": "Cell viability in kinase inhibitor library screening, 501Mel GP, 10μΜ", "setting": "[6]; 10μΜ, 72 h", "result": 87.4}
    ]}
  ]
}
